Results published in patent publication US6255517A, “Thymol derivatives having anti-tumor activity, and anti-cancer agent comprising the same” (Zee; Ok Pyo, priority 1998, dated 2001).
pIC50: −log10 of the molar value.

Legend:
Format in all cases: cell-based
A549 = test: SRB cytotoxicity (anti-tumor activity) in vitro, A549; conditions: Homo sapiens; A549 non small cell lung carcinoma; SRB, 48 hours; read-out: ED50 (the source's name)
Description: (§1) Anti-Tumor (Cyto-Toxicity) Effect in vitro of the Compound According to the Present Invention
(§2) The method for detecting cyto-toxicity employed in the present experiment is Sulforhodamin B Bioassay (SRB) method, which was developed by National Cancer Institute (NCI) in the United States in 1989, for the purpose of measuring anti-tumor activity in vitro.
(§3) The tumor cells used in the experiments via SRB method are listed below:
A549: non small cell lungcarcinoma
(§4) The tumor cells listed above are all human tumor cell-lines, which were distributed from NCI in the United States and subcultured in Korea Chemical Institute. As a culture medium, RPMI 1640 culture medium supplemented with 5% FBS (fetal bovine serum) was used. Cultivation was performed in an 5% CO2 incubator with constant temperature (37° C.) and humidity. The subculture was carried out every three or four days, and a solution of 0.25% tyrosine and 3 mM trans-1,2-diaminocyclohexane-n,n,n,n-tetracetic acid (CDTA) dissolved in PBS (phosphate buffered saline) was used in order to release cells from the surface of the container.
(§5) The test compound synthesized according to the present invention was diluted to have a concentration of 30.0 μg/ml, 10.0 μg/ml, 3.0 μg/ml, 1.0 μg/ml, 0.3 μg/ml and 0.1 μg/ml, respectively, and the cyto-toxicity (anti-tumor activity) of the compound was measured. The maximum concentration of the sample was not more than 30.0 μg/ml. In order to prepare the samples for detection, DMSO (dimethylsulfoxide) was used, if necessary. The concentration of DMSO added was not more than 0.5%. Before added to the tumor cells, the sample solution, which was diluted via several steps, is filtered through a Millipore filter. In a sterile condition, the sample for detecting cyto-toxicity was prepared by means of SRB method using human tumor cell-lines such as A549, SK-OV-3, SK-MEL-2, XF498 and HCT15.
(§6) The subcultured tumor cells were released from the surface of instrument by using tyrosine-CDTA solution, and then charged on a 96-well flat bottom microplate to make the cell number 5×10^3 (A549, HCT15), 1×10^4 (SK-MEL-2, XF498) and 2×10^4 (SK-OV-3) for each cell. The tumor cells are attached on the bottom by cultivating in a CO2 incubator. After removing the culture medium by using an aspirator, the medium is eliminated by using log dose of six concentrations. To each well, 100 μl of 10% TCA (trichloroacetic acid) is added, and the plate was left for 1 hour at 4° C. to fix the cells on the bottom surface of the plate.
(§7) Then, the plate was washed with distilled water 5-6 times to completely remove the residual TCA solution, and dried up at room temperature. To each well of the completely dried plate, 100 μl of dye solution, in which 0.4% SRB solution was dissolved, was added to dye the cells for 30 minutes, and the cells were washed with 1% acetic acid to remove excess SRB which was not combined with the cells. The dyed cell plates were dried at room temperature, and 100 μl of 10 mM trisma base solution was added to each well. The solution was mixed by a titer plate shaker for 10 minutes to elute the dye solution. Then, the absorbance at 520 nm was measured by using a microplate reader.
(§8) In order to calculate the cyto-toxicity (anti-tumor activity) of the samples on tumor cells, the number of tumor cells at the point of adding the sample (Tz, zero time), the number of cells when only an excess amount of culture medium was added instead of the sample and cultured for 48 hours (C, control), and the number of cells when each concentration of the sample was added and cultured for 48 hours (T, test) were measured respectively. The cyto-toxicity was determined according to the following formulas:
(§9) When Tz>T: [(T-Tz)/(C-Tz)]×100
(§10) When Tz<T: [(T-Tz)/Tz]×100
(§11) From the calculated values thus obtained, ED50 (50% effective dose) [the concentration when the sample inhibits 50% of the growth of the tumor cells] was determined by the use of data regression tool of LOTUS program. […]

SK-OV-3 = test: SRB cytotoxicity (anti-tumor activity) in vitro, SK-OV-3; conditions: Homo sapiens, SK-OV-3 ovary adenocarcinoma, 48 hours, read-out: ED50 (the source's name)
Description: as §1, §2, §3
SK-OV-3: adenocarcinoma, ovary malignant ascites
as §4, §5, §6, §7, §8, §9, §10, §11

SK-MEL-2 = test: SRB cytotoxicity (anti-tumor activity) in vitro, SK-MEL-2; conditions: Homo sapiens, SK-MEL-2 malignant melanoma, 48 hours, read-out: ED50 (the source's name)
Description: as §1, §2, §3
SK-MEL-2: malignant melanoma, metastasis to skin of thigh
as §4, §5, §6, §7, §8, §9, §10, §11

XF498 = test: SRB cytotoxicity (anti-tumor activity) in vitro, XF498; conditions: Homo sapiens, XF498 central nerve system tumor, 48 hours, read-out: ED50 (the source's name)
Description: as §1, §2, §3
XF498: central nerve system tumor
as §4, §5, §6, §7, §8, §9, §10, §11

HCT15 = test: SRB cytotoxicity (anti-tumor activity) in vitro, HCT15; conditions: Homo sapiens, HCT-15, HCT15 colon adenocarcinoma, 48 hours, read-out: ED50 (the source's name)
Description: as §1, §2, §3
HCT15: colon adenocarcinoma
as §4, §5, §6, §7, §8, §9, §10, §11

C=C(CO)c1ccc(C)cc1OCc1ccc([N+](=O)[O-])cc1 [Compound 35, 2-(2-(4'-nitrobenzyloxy)-4-methylphenyl)-prop-2-ene-1-ol]
pIC50 (A549): 5.34 | pIC50 (SK-OV-3): 6.52 | pIC50 (SK-MEL-2): 5.04 | pIC50 (XF498): 5.26 | pIC50 (HCT15): 5.06
